Laboratory results taken from article PMC9184620, “TAS1553, a small molecule subunit interaction inhibitor of ribonucleotide reductase, exhibits antitumor activity by causing DNA replication stress” (Communications Biology, 2022).
Where two headings read alike, the source gives them in different places. Ends that are not written are not given here.

What was measured:
[1] = target: T1, RNR (R1 and R2 recombinant proteins) (Homo sapiens, UniProt P23921); assay: RNR assay (formation of dCDP from CDP); type: biochemical
T1 construct: made in house; host or cells: Escherichia coli
T1 sequence (P23921 1-792): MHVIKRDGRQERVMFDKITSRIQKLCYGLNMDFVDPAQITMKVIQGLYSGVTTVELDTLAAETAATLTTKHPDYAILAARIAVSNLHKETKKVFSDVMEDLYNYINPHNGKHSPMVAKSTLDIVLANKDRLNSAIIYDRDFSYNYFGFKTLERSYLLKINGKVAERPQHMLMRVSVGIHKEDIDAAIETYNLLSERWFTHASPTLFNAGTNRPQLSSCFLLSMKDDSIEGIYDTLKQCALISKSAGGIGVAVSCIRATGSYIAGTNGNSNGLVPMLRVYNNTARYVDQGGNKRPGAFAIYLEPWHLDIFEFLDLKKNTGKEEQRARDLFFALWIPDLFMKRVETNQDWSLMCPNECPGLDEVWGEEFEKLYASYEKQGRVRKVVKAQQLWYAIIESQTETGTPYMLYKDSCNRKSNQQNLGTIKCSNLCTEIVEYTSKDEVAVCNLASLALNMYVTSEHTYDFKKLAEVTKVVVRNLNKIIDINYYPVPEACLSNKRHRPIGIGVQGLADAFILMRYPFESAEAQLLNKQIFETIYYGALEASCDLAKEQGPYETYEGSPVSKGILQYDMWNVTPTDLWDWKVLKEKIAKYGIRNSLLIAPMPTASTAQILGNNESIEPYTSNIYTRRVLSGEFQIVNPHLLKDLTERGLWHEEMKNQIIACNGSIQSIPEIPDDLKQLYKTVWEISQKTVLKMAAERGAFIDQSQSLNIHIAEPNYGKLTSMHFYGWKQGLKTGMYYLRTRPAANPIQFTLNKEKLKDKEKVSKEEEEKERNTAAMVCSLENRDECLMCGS
Method: The binding affinity of TAS1553 to the R1 subunit was investigated using surface plasmon resonance (SPR) binding analysis. […] Next, we evaluated the inhibitory effect of TAS1553 against the enzymatic activity of RNR, consisting of R1 and R2 recombinant proteins. RNR activity was determined by its ability to reduce cytidine diphosphate (CDP) to deoxycytidine diphosphate (dCDP), based on a previous report. […] In addition to the inhibitory effect on RNR, TAS1553 was evaluated in a Eurofins LeadProfilingScreen panel assay including 68 proteins, such as ion channels, transporters, nuclear receptors, and G protein-coupled receptors, to examine its potential adverse activity.
The inhibition of RNR activity by the test compound was evaluated by measuring the formation of dCDP from CDP, as reported previously. The assay was performed for 30 min at 37 °C in a reaction mixture composed of 50 mmol/L HEPES, 4 mmol/L magnesium acetate, 100 mmol/L KCl, 6 mmol/L DTT, 2 mmol/L ATP, 0.24 mmol/L NADPH, 10.0 µmol/L CDP, 0.1 mg/mL BSA, 8.0 µg/mL His-R1, 2.4 µg/mL His-R2, and 1% DMSO with or without test compound. The reaction was discontinued by heat treatment at 95 °C for 5 min. The amount of dCDP after the reaction was quantified by a prominence HPLC system and LabSolutions software (SHIMADZU CORPORATION). Separations were performed at 265 nm in a Shim-pack XR-ODS column of particle size 2.2 μm (100 × 3.0 mm, SHIMADZU GLC Ltd.). Overall, 5 µL of each sample was injected, and chromatography was performed at 40 °C. Mobile A was composed of 10 mmol/L potassium dihydrogenphosphate, 10 mmol/L tetrabutylammonium hydroxide, 0.25% methanol and 8 mmol/L HCl. Mobile B was composed of 50 mmol/L potassium dihydrogenphosphate, 5.6 mmol/L tetrabutylammonium hydroxide, and 30% methanol. The gradient was as follows: 52–60% B for 9 min, 60–99% B for 1 min, 99% B for 5 min, 99–52% B for 1 min, and 52% B for 5 min. The flow rate was 0.5 mL/min. The experiment was performed in triplicates. IC50 values were calculated using the SAS software package.

human R1 = target: T2, human R1 (Homo sapiens, UniProt P23921); assay: Fluorescence polarization binding assay (displacement of TAMRA-labeled P7 from R1); details: for IC50: R1 and TAMRA-labeled P7, mean ± SD, three independent experiments, read-out: IC50, fluorescent polarization binding assay
T2 construct: made in house; host or cells: Escherichia coli
T2 sequence (P23921 1-792): T1 sequence (P23921 1-792)
Text: Fig. 1 Design and identification of the small molecule compound TAS1553 blocking the interaction between RNR subunits. a A schematic representation of the fluorescent polarization binding assay. TAMRA-labeled P7 heptapeptide was used as a probe. […] Data are presented as mean ± SD obtained from three independent experiments. c Chemical structures of compound 1 and TAS1553. d Superposition of the X-ray co-crystal structure of human RRM1 (green) with compound 1 (magenta) (PDB ID: 6L3R) to the previously determined X-ray co-crystal structure of Saccharomyces cerevisiae RNR1 (cyan) with P7 peptide (yellow) (PDB ID: 2ZLF). The residue numbers and protein surface shown here are those of hRRM1. e SPR analysis for the binding of TAS1553 to human R1 captured onto Series S Sensor Chip NTA. […] IC50 (mean ± SD) is determined from three independent experiments performed in triplicate.
TAMRA-labeled P7 peptide was obtained from Peptide Institute, Inc. to be used as a fluorescent probe in the FP binding assay. The final reaction mixture was composed of 50 mmol/L Tris-Cl (pH 8.0), 10 mmol/L DTT, 10 nmol/L TAMRA-P7, 32 ng/mL His-R1, and 1% DMSO with or without test compound. The assay was performed for 120 min at room temperature with protection from light, after which FP of each sample was measured with a PHERAstarFS. IC50 values were calculated using the SAS software package in EXSUS (CAC Croit).

[2] = target: T3, interaction between R1 and R2 (human RNR) (Homo sapiens, UniProt P23921); assay: AlphaLISA binding assay (interaction between His-R1 and GST-R2); details: recombinant R1 and R2; mean ± SD
T3 construct: host or cells: Escherichia coli (His-R1)
T3 sequence (P23921 1-792): T1 sequence (P23921 1-792)

HCC38 xenograft = assay: Antitumor activity in mice bearing HCC38 xenografts; type: in vivo, mouse
Method: (§1) Next, we evaluated the antitumor activity of a high-dose administration of TAS1553 and cytarabine in rats bearing MV-4-11 xenografts. […] The rats were treated with cytarabine for 5 days at 16 and 32 mg/kg. […] In addition to the hematologic tumor, we evaluated the antitumor activity of TAS1553 in mice implanted with HCC38 cell line as a solid tumor model. […] Finally, TAS1553 was evaluated for its survival benefit in a mouse model. To achieve this, we established mice bone marrow cells harboring the human MLL-AF9 fusion gene, which is known as a driver gene for AML in humans as well as mice[48]. Mice were transplanted with the cells through the tail vein and the treatment with TAS1553 was started 11 days post-implantation.
(§2) For the subcutaneous implantation model of MV-4-11, F344/NJcl-rnu/rnu rats were irradiated with X-ray (4 Gy) to improve the efficiency of xenograft implantation. Two days after X-ray irradiation, MV-4-11 cells suspended in PBS with 50 vol% Matrigel were inoculated into the rats (2 × 10^7 cells/animal). In the mice subcutaneous implantation model, HCC38 cells suspended same as above were inoculated into male BALB/cAJcl-nu/nu mice (1 × 10^7 cells /body). The animals were randomized and administered with the compound for 14 days. Antitumor activity and body weight change were evaluated as previously reported. Dunnett test using the SAS software package in EXSUS (CAC Croit) was used to compare the tumor volume (P < 0.05).

MV-4-11 xenograft = assay: Antitumor activity in rats bearing MV-4-11 xenografts; type: in vivo; details: 32 mg/kg intravenously for 5 consecutive days
Method: as §1, with “mice[48].” for “mice[48]. Mice were transplanted with the cells through the tail vein and the treatment with TAS1553 was started 11 days post-implantation.”
as §2, with “The animals were randomized and administered with the compound for 14 days.” left out

[3] = target: T4, 6x His-tagged recombinant human R1 (RRM1) (human, UniProt P23921 1-792); assay: AlphaScreen or HTRF; AlphaLISA: 4.3 ug/mL His-R1 (Nickel Chelate Acceptor beads), 3.3 ug/mL GST-R2 (Glutathione Donor beads), with or without test compound; 50 mmol/L HEPES, 4 mmol/L magnesium acetate, 100 mmol/L KCl, 6 mmol/L DTT, 2 mmol/L ATP, 0.24 mmol/L NADPH, 0.010 mmol/L CDP, 0.1 vol% polysorbate 20, 1 vol% DMSO; 60 min, room temperature; details: both partners purified
T4 construct: also called His-R1; hRRM1
T4 sequence (looked up): T1 sequence (P23921 1-792)

[4] = target: T4, 6x His-tagged recombinant human R1 …; assay: fluorescence polarisation; competition: 10 nmol/L TAMRA-P7 probe, 32 ng/mL His-R1, with or without test compound; 50 mmol/L Tris-Cl pH 8.0, 10 mmol/L DTT, 1% DMSO; 120 min, room temperature; details: both partners purified
[5] = CDP to dCDP, mean ± SD, read-out: Enzyme IC50

Molecule: NC(=S)N/N=C/c1ncccc1N [3-AP, Triapine]
- IC50 [1, 5]: 0.364 ± 0.106 µM

Molecule: O=C(Nc1nc(-c2ccc(O)c(O)c2)c(-c2ccccc2)s1)c1ccc(O)c(O)c1 [COH29]
- IC50 [1, 5]: 6.76 ± 0.71 µM

Molecule: CN(C)c1cccc2c(S(=O)(=O)N[C@@H](Cc3ccccc3)C(=O)O)cccc12 [Dansyl-L-phenyl alanine, reference compound]
- IC50 (human R1): 3340 ± 540 µM

Molecule: O=C(N[C@@H](Cc1ccccc1)C(=O)O)OCC1c2ccccc2-c2ccccc21 [Fmoc-L-phenylalanine, reference compound]
- IC50 (human R1): 934 ± 35 µM

Molecule: NC(=O)NO [HU, Hydroxyurea, reference compound]
- IC50 [1, 5]: 188 ± 32 µM
- IC50 [2]: > 1000 µM

Molecule: CCCCCOC(=O)Nc1nc(=O)n([C@@H]2O[C@H](C)[C@@H](O)[C@H]2O)cc1F [capecitabine]
- T/C ratio (HCC38 xenograft; 539 mg/kg oral once daily for 14 days (maximum tolerated dose)): 67.9%

Molecule: C[C@H](c1cccc2ccccc12)[C@H](NS(=O)(=O)c1ccc(Br)cc1)c1n[nH]c(=O)o1 [compound 1, 4-bromo-N-[(1S,2R)-2-(naphthalen-1-yl)-1-(5-oxo-4,5-dihydro-1,3,4-oxadiazol-2-yl)propyl]benzenesulfonamide]
- potency relative to Fmoc-L-phenylalanine (binding inhibition) (human R1; FP binding IC50 ratio): ~ 2000 fold
- IC50 (human R1): 0.527 ± 0.021 µM

Molecule: Nc1ccn([C@@H]2O[C@H](CO)[C@@H](O)[C@@H]2O)c(=O)n1 [cytarabine, reference compound]
- T/C ratio (MV-4-11 xenograft): 77.4%

Molecule: CC(=O)O[C@H]1C(=O)[C@@]2(C)[C@H]([C@H](OC(=O)c3ccccc3)[C@]3(O)C[C@H](OC(=O)[C@H](O)[C@@H](NC(=O)c4ccccc4)c4ccccc4)C(C)=C1C3(C)C)[C@]1(OC(C)=O)CO[C@@H]1C[C@@H]2O [paclitaxel]
- T/C ratio (HCC38 xenograft; 20 mg/kg intravenously once a week): 63.6%

Molecule: Ac-FTLDADF [P7, N-AcFTLDADF]
- IC50 [1]: 14.5 ± 1 µM

B1: P7 heptapeptide (N-AcFTLDADF) (peptide)
peptide: Ac-FTLDADF
notes: also called unlabeled P7; P7 peptide; source: synthetic peptide; bought: Peptide Institute, Inc
- IC50 [3]: 9.22 µM
- IC50 [4]: 2.49 µM

B2: TAMRA-labeled P7 peptide (peptide)
peptide: FTLDADF
modifications: also: TAMRA label, site not given here
notes: also called TAMRA-P7; fluorescence tagged P7; source: synthetic peptide; bought: Peptide Institute, Inc
- binding result [4]: binds
